Laboratory results published in patent US7241581B2, “Methods of identifying compounds that modulate IL-4 receptor-mediated IgE synthesis utilizing a c-MYC protein” (Rigel Pharmaceuticals, Inc., priority 2002, dated 2007).

Test system: germline ε promoter
Assay: Functional profile of BR10A1 wt and mutants in the A5T4 reporter cell line
Type: cell-based, human
Settings: A5T4 reporter line
Method: Following infection, the library was enriched for cells expressing peptides that inhibit IL-4 induced ε transcription as generally outlined in the top half of FIG. 3 and sorted by FACS into single cell clones. The clones were then screened as generally illustrated in the lower half of FIG. 3. Briefly, for screening, each clone was divided into two populations and one population was treated with Dox (10 ng/ml). After 5 days, both populations were stimulated with IL-4 (final conc. 60 U/mL; PeptroTech, Inc.) and, after 3 more days, both populations were analyzed by FACS to measure BFP and GFP fluorescence. FACS data were converted to a “reporter ratio”, which is defined for this purpose as the ratio of the geometric mean of GFP fluorescence of the +IL-4/+Dox to the +IL-4/−Dox populations. Cells expressing a peptide that inhibits germline ε transcription have a reporter ratio of ≧1.1. A reporter ratio of ≧1.2 is indicative of strong inhibition.
The ability of peptide BR10A1 wt to inhibit germline ε transcription was confirmed in naive cells. Briefly, Phoenix cells were transfected with a retroviral vector encoding a BFP-BR10A1 wt peptide fusion as described in WO 99/58663 and WO 97/27213. Naïve A5T4 cells were infected with the resultant virions and grown for 3 days. The infected cells were stimulated with IL-4 (60 U/mL) and, after 3 days, the cells were assessed by FACS for BFP and GFP. […] The BFP fluorescence data corresponding to the BFP^+ and BFP^− populations are provided in Panel A. The GFP fluorescence data corresponding to the BFP^+ and BFP^− populations are presented in Panel B. The reporter ratio for this purpose is determined as the geometric mean of the GFP fluorescence of the BFP^− population divided by the geometric mean of the GFP fluorescence of the BFP^+ population. The reporter ratio for the BR10A1 in this re-infection assay was 1.27.
A collection of BR10A1 mutants was generated by replacing single or double amino acid residues in the sequence of BR10A1 wt with a different amino acid, typically an alanine or glycine, as described in copending application Ser. No.10/095,659, entitled Methods of Identifying Protein Targets, filed Mar. 8, 2002 . The functional profiles for the mutants derived from BR10A1 wt was obtained by constructing and screening for activity in the A5T4 reporter cell line in the manner described above. The activity of each mutant at the germline ε promoter is reflected in the reporter ratio as described above. The reporter ratios were the functional values that were used to develop the functional profiles. Measurement of the reporter ratios of the mutant peptides was carried out in a number of separate experiments, each time comparing the value of cells transfected with mutant peptide to that of cells transfected with control WT peptide done at the same time. The reporter ratios of the control WT peptide can vary depending upon a number of factors including the infectivity or the state of the infected cells at the time of infection.
TABLE 2 depicts the amino acid sequences (the dual alanine mutations are underlined) of the mutants tested and the measured reporter ratios when screening in the A5T4 reporter line.
Comparison of the interaction and functional profiles was performed by categorizing the mutants of BR10A1 based on the functional and interaction assays. Based on the reporter ratio, each mutant was categorized into one of four functional categories: (1) reduction of function (ROF); (2) loss of function (LOF); (3) increase of function (IOF) or (4) functionally neutral (N) as compared to the activity of the wild type peptide, here BR10A1 wt. As mentioned previously, cells expressing a peptide that inhibits germline ε transcription have reporter ratios of ≧1.1. Cells expressing a loss of function (LOF) mutant have a reporter ratio of <1.11. […] Functionally neutral mutants have reporter ratios that fall within ±50% of that of the BR10A1 wt peptide. […]

## MQRRESCITRSVEEGWGLFYLGP (peptide encoded by random oligo-BR10A1wt) [wild-type peptide from random library, expressed in cells as BFP-peptide fusion]
First value column (separate experiment with its own WT control)
  Reporter Ratio: 1.27
Fourth value column (separate experiment with its own WT control)
  Reporter Ratio: 1.35
Second value column (separate experiment with its own WT control)
  Reporter Ratio: 1.36
Separate experiment with its own WT control
  Reporter Ratio: 1.55
